From ChEMBL document CHEMBL5649166, “RIP3 induces apoptosis independent of pronecrotic kinase activity” (Mol Cell, 2014)

How the values were obtained:
[1] = target: T1, Dual specificity tyrosine-phosphorylation-regulated kinase 3 (Homo sapiens) (UniProt O43781); assay: Residual activity of human DYRK3 using RRRFRPASPLRGPPK as substrate at 1 uM in presence of 32P-ATP by Hotspot assay relative to control
T1 sequence (whole entry): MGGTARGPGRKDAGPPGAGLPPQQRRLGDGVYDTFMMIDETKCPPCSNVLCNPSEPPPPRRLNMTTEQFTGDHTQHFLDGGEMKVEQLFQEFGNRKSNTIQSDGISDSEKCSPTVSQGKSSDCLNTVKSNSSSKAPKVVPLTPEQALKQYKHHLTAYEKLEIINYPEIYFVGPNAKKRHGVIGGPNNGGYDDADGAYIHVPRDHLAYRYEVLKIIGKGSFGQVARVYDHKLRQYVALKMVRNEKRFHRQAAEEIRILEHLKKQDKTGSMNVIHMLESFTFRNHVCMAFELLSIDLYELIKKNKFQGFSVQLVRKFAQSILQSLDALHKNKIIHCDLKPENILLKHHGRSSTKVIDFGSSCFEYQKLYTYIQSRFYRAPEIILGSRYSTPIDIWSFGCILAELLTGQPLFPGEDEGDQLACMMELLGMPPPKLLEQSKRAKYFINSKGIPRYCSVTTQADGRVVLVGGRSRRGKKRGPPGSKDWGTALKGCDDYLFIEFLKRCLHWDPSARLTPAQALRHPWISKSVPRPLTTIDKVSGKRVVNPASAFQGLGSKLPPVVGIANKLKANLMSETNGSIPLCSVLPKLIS

[2] = target: T2, Tyrosine-protein kinase TXK (Homo sapiens) (UniProt P42681); assay: Inhibition of human TXK using EAIYAAPFAKKK as substrate at 1 uM in presence of 32P-ATP by Hotspot assay relative to control; values are per cent of control
T2 sequence (whole entry): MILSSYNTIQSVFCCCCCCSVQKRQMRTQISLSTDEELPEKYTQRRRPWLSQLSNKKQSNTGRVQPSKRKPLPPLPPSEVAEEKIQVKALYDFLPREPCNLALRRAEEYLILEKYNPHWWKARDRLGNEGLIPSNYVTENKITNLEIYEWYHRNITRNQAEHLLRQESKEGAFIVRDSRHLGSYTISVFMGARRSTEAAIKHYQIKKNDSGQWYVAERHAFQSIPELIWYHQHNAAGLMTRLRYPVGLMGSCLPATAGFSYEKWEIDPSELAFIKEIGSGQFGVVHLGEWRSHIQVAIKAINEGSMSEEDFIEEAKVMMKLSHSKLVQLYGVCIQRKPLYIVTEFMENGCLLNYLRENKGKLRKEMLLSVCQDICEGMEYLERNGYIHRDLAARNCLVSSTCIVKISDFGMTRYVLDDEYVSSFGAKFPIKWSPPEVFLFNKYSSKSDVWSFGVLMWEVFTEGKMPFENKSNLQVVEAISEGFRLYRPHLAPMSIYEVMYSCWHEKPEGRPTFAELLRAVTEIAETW

[3] = target: CDK4/Cyclin D3 (Homo sapiens) (UniProt P11802+P30281); assay: Inhibition of human CDK4/cyclin D3 using RB-CTF as substrate at 1 uM in presence of 32P-ATP by Hotspot assay relative to control; values are per cent of control
[4] = target: T3, Tyrosine-protein kinase Mer (Homo sapiens) (UniProt Q12866); assay: Inhibition of human c-MER using poly[Glu:Tyr] (4:1) as substrate at 1 uM in presence of 32P-ATP by Hotspot assay relative to control; values are per cent of control
T3 sequence (whole entry): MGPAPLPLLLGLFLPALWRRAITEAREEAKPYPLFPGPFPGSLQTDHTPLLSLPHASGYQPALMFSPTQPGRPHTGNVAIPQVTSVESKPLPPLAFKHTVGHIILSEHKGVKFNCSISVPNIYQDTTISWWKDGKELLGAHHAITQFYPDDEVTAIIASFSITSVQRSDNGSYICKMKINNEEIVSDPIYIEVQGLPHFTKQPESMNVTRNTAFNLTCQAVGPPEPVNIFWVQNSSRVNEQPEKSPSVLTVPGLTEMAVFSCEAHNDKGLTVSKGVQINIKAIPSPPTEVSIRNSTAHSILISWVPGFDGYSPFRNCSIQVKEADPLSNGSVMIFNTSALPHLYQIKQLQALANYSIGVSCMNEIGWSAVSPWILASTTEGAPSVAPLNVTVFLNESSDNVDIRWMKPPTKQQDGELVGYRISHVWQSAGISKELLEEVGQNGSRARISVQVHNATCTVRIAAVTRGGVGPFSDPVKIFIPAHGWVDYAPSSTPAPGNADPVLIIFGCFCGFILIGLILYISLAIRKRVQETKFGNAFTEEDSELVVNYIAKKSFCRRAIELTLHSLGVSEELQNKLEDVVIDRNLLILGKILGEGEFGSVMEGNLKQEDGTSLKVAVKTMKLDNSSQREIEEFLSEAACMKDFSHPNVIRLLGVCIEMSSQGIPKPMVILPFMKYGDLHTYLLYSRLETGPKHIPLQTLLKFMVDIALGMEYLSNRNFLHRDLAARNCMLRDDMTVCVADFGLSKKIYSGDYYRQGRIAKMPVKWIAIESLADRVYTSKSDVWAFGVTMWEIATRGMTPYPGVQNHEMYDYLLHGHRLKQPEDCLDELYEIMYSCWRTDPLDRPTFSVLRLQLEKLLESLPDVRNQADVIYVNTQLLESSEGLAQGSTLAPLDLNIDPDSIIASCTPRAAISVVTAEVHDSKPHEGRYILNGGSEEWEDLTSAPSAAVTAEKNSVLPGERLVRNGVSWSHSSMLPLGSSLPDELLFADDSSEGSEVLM

| Structure (SMILES) | residual activity [1] [%] | residual activity [2] [%] | residual activity [3] [%] | residual activity [4] [%] |
| --- | --- | --- | --- | --- |
| CC(C)S(=O)(=O)c1ccc2nccc(Nc3ccc4scnc4c3)c2c1 | 106 | 47.4 | 102 | 93.8 |
| Cc1cc(-c2cnc(N)c3c(-c4ccc5scnc5c4)csc23)n(C)n1 | 92.9 | 33.2 | 108 | 89.1 |
| CNC(=O)c1ccc2c(c1)ncn2-c1ccc(CC(=O)OC(C)(C)C)cc1 | 101 | 84.2 | 98.2 | 102 |
